What was measured:
Assay in all cases: NCI60 antitumor screening
Type in all cases: cell-based, human
[1] = system: HOP-62; settings: for inhibition at 10 µM: Homo sapiens, 10 μM single dose, HOP-62 (non-small cell lung cancer), read-out: growth inhibition percent (GI%); for GI%: 10 μM one-dose
[2] = system: DU-145; settings: for inhibition at 10 µM: Homo sapiens, DU-145, read-out: growth inhibition percent (GI%)
[3] = system: OVCAR-8; settings: for inhibition at 10 µM: Homo sapiens, 10 μM single dose, OVCAR-8 (ovarian cancer), read-out: growth inhibition percent (GI%)
[4] = system: MDA-MB-468; settings: for inhibition at 10 µM: Homo sapiens, 10 μM single dose, MDA-MB-468 (breast cancer), read-out: growth inhibition percent (GI%)
[5] = system: MALME-3M; settings: for inhibition at 10 µM: Homo sapiens, 10 μM single dose, MALME-3M (melanoma), read-out: growth inhibition percent (GI%)
[6] = system: LOX IMVI; settings: for inhibition at 10 µM: Homo sapiens, 10 μM single dose, LOX IMVI (melanoma), read-out: growth inhibition percent (GI%)
[7] = system: SNB-19; settings: for inhibition at 10 µM: Homo sapiens, 10 μM single dose, SNB-19 (CNS cancer), read-out: growth inhibition percent (GI%)
[8] = system: RXF 393; settings: for inhibition at 10 µM: Homo sapiens, 10 μM single dose, RXF 393 (renal cancer), read-out: growth inhibition percent (GI%); for GI%: 10 μM one-dose
[9] = system: SW-620; settings: for inhibition at 10 µM: Homo sapiens, 10 μM single dose, SW-620 (colon cancer), read-out: growth inhibition percent (GI%)
[10] = system: NCI-H522; settings: for inhibition at 10 µM: Homo sapiens, 10 μM single dose, NCI-H522 (non-small cell lung cancer), read-out: growth inhibition percent (GI%)
[11] = system: SNB-75; settings: for inhibition at 10 µM: Homo sapiens, 10 μM single dose, SNB-75 (CNS cancer), read-out: growth inhibition percent (GI%); for GI%: 10 μM one-dose, Table 1
[12] = system: HOP-92; settings: for inhibition at 10 µM: Homo sapiens, 10 μM single dose, HOP-92 (non-small cell lung cancer), read-out: growth inhibition percent (GI%)
[13] = system: RPMI-8226; settings: for inhibition at 10 µM: Homo sapiens, 10 μM single dose, RPMI-8226 (leukaemia), read-out: growth inhibition percent (GI%)
[14] = system: UACC-257; settings: for inhibition at 10 µM: Homo sapiens, 10 μM single dose, UACC-257 (melanoma), read-out: growth inhibition percent (GI%)
[15] = system: 786–0; settings: for inhibition at 10 µM: Homo sapiens, 10 μM single dose, 786–0 (renal cancer), read-out: growth inhibition percent (GI%); for GI%: 10 μM one-dose
[16] = system: U251; settings: for inhibition at 10 µM: Homo sapiens, U-251, 10 μM single dose, U251 (CNS cancer), read-out: growth inhibition percent (GI%)
[17] = system: TK-10; settings: for inhibition at 10 µM: Homo sapiens, 10 μM single dose, TK-10 (renal cancer), read-out: growth inhibition percent (GI%)
[18] = system: MDA-MB-231/ATCC; settings: for inhibition at 10 µM: Homo sapiens, 10 μM single dose, MDA-MB-231/ATCC (breast cancer), read-out: growth inhibition percent (GI%)
[19] = system: SR; settings: for inhibition at 10 µM: Homo sapiens, 10 μM single dose, SR (leukaemia), read-out: growth inhibition percent (GI%); for GI%: 10 μM one-dose, Table 1
[20] = system: SK-OV-3; settings: for inhibition at 10 µM: Homo sapiens, 10 μM single dose, SK-OV-3 (ovarian cancer), read-out: growth inhibition percent (GI%)
[21] = system: KM12; settings: for inhibition at 10 µM: Homo sapiens, 10 μM single dose, KM12 (colon cancer), read-out: growth inhibition percent (GI%)
[22] = system: MCF7; settings: for inhibition at 10 µM: Homo sapiens, 10 μM single dose, MCF7 (breast cancer), read-out: growth inhibition percent (GI%)
[23] = system: A549/ATCC; settings: for inhibition at 10 µM: Homo sapiens, 10 μM single dose, A549/ATCC (non-small cell lung cancer), read-out: growth inhibition percent (GI%)
[24] = system: MDA-MB-435; settings: for inhibition at 10 µM: Homo sapiens, 10 μM single dose, MDA-MB-435 (melanoma), read-out: growth inhibition percent (GI%)
[25] = system: K-562; settings: for inhibition at 10 µM: Homo sapiens, 10 μM single dose, (leukaemia), read-out: growth inhibition percent (GI%); for GI%: 10 μM one-dose
[26] = system: CAKI-1; settings: for inhibition at 10 µM: Homo sapiens, 10 μM single dose, CAKI-1 (renal cancer), read-out: growth inhibition percent (GI%)
[27] = system: NCI-H226; settings: for inhibition at 10 µM: Homo sapiens, 10 μM single dose, NCI-H226 (non-small cell lung cancer), read-out: growth inhibition percent (GI%); for GI%: 10 μM one-dose

Structure (SMILES): N#Cc1c(-c2ccc(F)cc2)nc(SCc2ccc([N+](=O)[O-])cc2)nc1N1CCNCC1 [4g, 4-(4-Fluorophenyl)-2-((4-nitrobenzyl)thio)-6-(piperazin-1-yl) pyrimidine-5-carbonitrile]
- inhibition at 10 µM [1]: < 10%
- inhibition at 10 µM [2]: < 10%
- inhibition at 10 µM [3]: < 10%
- inhibition at 10 µM [4]: < 10%
- inhibition at 10 µM [5]: < 10%
- inhibition at 10 µM [6]: < 10%
- inhibition at 10 µM [7]: < 10%
- inhibition at 10 µM [8]: 15.2%
- inhibition at 10 µM [9]: < 10%
- inhibition at 10 µM [10]: < 10%
- inhibition at 10 µM [11]: 15.9%
- inhibition at 10 µM [12]: < 10%
- inhibition at 10 µM [13]: < 10%
- inhibition at 10 µM [14]: < 10%
- inhibition at 10 µM [15]: < 10%
- inhibition at 10 µM [16]: < 10%
- inhibition at 10 µM [17]: < 10%
- inhibition at 10 µM [18]: < 10%
- inhibition at 10 µM [19]: < 10%
- inhibition at 10 µM [20]: < 10%
- inhibition at 10 µM [21]: < 10%
- inhibition at 10 µM [22]: < 10%
- inhibition at 10 µM [23]: < 10%
- inhibition at 10 µM [24]: < 10%
- inhibition at 10 µM [25]: < 10%
- inhibition at 10 µM [26]: 11%
- inhibition at 10 µM [27]: < 10%

Structure (SMILES): CN1CCN(c2nc(SCc3ccc([N+](=O)[O-])cc3)nc(-c3ccc(F)cc3)c2C#N)CC1 [4k, 4-(4-Fluorophenyl)-6-(4-methylpiperazin-1-yl)-2-((4-nitrobenzyl)thio)pyrimidine-5-carbonitrile]
- inhibition at 10 µM [1]: 26.3%
- inhibition at 10 µM [2]: < 10%
- inhibition at 10 µM [3]: 11.7%
- inhibition at 10 µM [4]: 12.4%
- inhibition at 10 µM [5]: 27.2%
- inhibition at 10 µM [6]: 20.9%
- inhibition at 10 µM [7]: 29.6%
- inhibition at 10 µM [8]: 68.5%
- inhibition at 10 µM [9]: < 10%
- inhibition at 10 µM [10]: 21.3%
- inhibition at 10 µM [11]: 25.7%
- inhibition at 10 µM [12]: 47%
- inhibition at 10 µM [13]: 17.8%
- inhibition at 10 µM [14]: < 10%
- inhibition at 10 µM [15]: 26.4%
- inhibition at 10 µM [16]: < 10%
- inhibition at 10 µM [17]: < 10%
- inhibition at 10 µM [18]: 35.1%
- inhibition at 10 µM [19]: < 10%
- inhibition at 10 µM [20]: 20.9%
- inhibition at 10 µM [21]: < 10%
- inhibition at 10 µM [22]: 17.6%
- inhibition at 10 µM [23]: 18.7%
- inhibition at 10 µM [24]: < 10%
- inhibition at 10 µM [25]: 23.3%
- inhibition at 10 µM [26]: 34.8%
- inhibition at 10 µM [27]: < 10%

Structure (SMILES): Cc1ccc(CSc2nc(-c3ccc(F)cc3)c(C#N)c(N3CCOCC3)n2)cc1 [4d, 4-(4-Fluorophenyl)-2-((4-methylbenzyl)thio)-6-morpholinopyrimidine-5-carbonitrile]
- GI% [1]: 36.77%
- GI% ([1]; Table 1): — (GI value > 70%)
- GI% ([2]; 10 μM one-dose): — (GI% < 10)
- GI% ([3]; 10 μM one-dose): 23.86%
- GI% ([4]; 10 μM one-dose): — (GI% < 10)
- GI% ([5]; 10 μM one-dose): 26.17%
- GI% ([6]; 10 μM one-dose): 11.10%
- GI% ([7]; 10 μM one-dose): 44.48%
- GI% [8]: 48.96%
- GI% ([8]; Table 1): — (GI value > 70%)
- GI% ([9]; 10 μM one-dose): — (GI% < 10)
- GI% ([10]; 10 μM one-dose): 44.57%
- GI% [11]: 88.04%
- GI% ([12]; 10 μM one-dose): 34.62%
- GI% ([13]; 10 μM one-dose): — (GI% < 10)
- GI% ([14]; 10 μM one-dose): 17.42%
- GI% [15]: 55.92%
- GI% ([15]; Table 1): — (GI value > 70%)
- GI% ([16]; 10 μM one-dose): 13.13%
- GI% ([17]; 10 μM one-dose): — (GI% < 10)
- GI% ([18]; 10 μM one-dose): 31.92%
- GI% [19]: — (GI value > 70%)
- GI% ([20]; 10 μM one-dose): 11.69%
- GI% ([21]; 10 μM one-dose): — (GI% < 10)
- GI% ([22]; 10 μM one-dose): 11.76%
- GI% ([23]; 10 μM one-dose): 24.90%
- GI% ([24]; 10 μM one-dose): — (GI% < 10)
- GI% [25]: 10.67%
- GI% ([25]; Table 1): — (GI value > 70%)
- GI% ([26]; 10 μM one-dose): 44.00%
- GI% [27]: 21.35%
- GI% ([27]; Table 1): — (GI value > 70%)

Structure (SMILES): CN1CCN(c2nc(SCc3ccccc3)nc(-c3ccc(F)cc3)c2C#N)CC1 [4i, 2-(Benzylthio)-4-(4-fluorophenyl)-6-(4-methylpiperazin-1-yl) pyrimidine-5-carbonitrile]
- GI% ([1]; Table 1): — (GI value > 70%)
- inhibition at 10 µM [1]: 10.3%
- inhibition at 10 µM [2]: < 10%
- inhibition at 10 µM [3]: 14.1%
- inhibition at 10 µM [4]: 29.2%
- inhibition at 10 µM [5]: < 10%
- inhibition at 10 µM [6]: 25.4%
- inhibition at 10 µM [7]: 10%
- GI% ([8]; Table 1): — (GI value > 70%)
- inhibition at 10 µM [8]: 49.7%
- inhibition at 10 µM [9]: 10%
- inhibition at 10 µM [10]: 31.7%
- GI% [11]: — (GI value > 70%)
- inhibition at 10 µM [11]: 41%
- inhibition at 10 µM [12]: 22.7%
- inhibition at 10 µM [13]: 56.4%
- inhibition at 10 µM [14]: 27.8%
- GI% ([15]; Table 1): — (GI value > 70%)
- inhibition at 10 µM [15]: 29.3%
- inhibition at 10 µM [16]: < 10%
- inhibition at 10 µM [17]: < 10%
- inhibition at 10 µM [18]: 15.9%
- GI% [19]: 70.98%
- inhibition at 10 µM [19]: 71%
- inhibition at 10 µM [20]: < 10%
- inhibition at 10 µM [21]: 19.1%
- inhibition at 10 µM [22]: 30.8%
- inhibition at 10 µM [23]: 38.3%
- inhibition at 10 µM [24]: 12.8%
- GI% ([25]; Table 1): 73.15%
- inhibition at 10 µM [25]: 73.2%
- inhibition at 10 µM [26]: 37.9%
- GI% ([27]; Table 1): — (GI value > 70%)
- inhibition at 10 µM [27]: < 10%
